Source: US5994349A, “3-carboalkoxy-2, 3-dihydro-1H-phenothiazin-4[10H]-one derivatives” (priority 1997, dated 1999)
Read-outs that look alike come from different tables or passages of the source.

Columns and labels:
Assay type in all cases: in vivo, male Carworth Farms No. 1 (CF1) mice
[1] = tested on: pentylenetetrazol seizures; experiment: subcutaneous pentylenetetrazol (scMet) test, Phase I, mice ip; details: Mus musculus, mice ip
Method: (§1) Initial evaluations for anticonvulsant activity include phases I, VIA and VIB test procedures. These tests are performed intraperitoneally in male Carworth Farms No. 1 (CF1) mice, weighing 18-25 g (Phase I) or orally in male Sprague-Dawley rats, weighing 100-150 g (Phases VIA and VIB). The evaluation is based on three tests: maximal electroshock (MES), subcutaneous (scMet), and the rotorod test for neurological toxicity (Tox). (a) Anticonvulsant Screening Project, Antiepileptic Drug Development Program, National Institutes of Health, DHEW Publ (NIH)(U.S.) 1978, NIH 78-1093. (b) Porter, R. J.; Cereghino, J. J.; Gladding, G. D.; Hessie, B. J.; Kupferberg, H. J.; Scoville, B.; White, B. G. Antiepileptic drug development program. Cleveland Clin. Q. 1984, 51, 293-305. (c) Krall, R. L.; Penry, J. K.; White, B. G.; Kupferberg, H. J.; Swinyard, E. A. Antiepileptic drug development: II. Anticonvulsant drug screening. Epilepsia 1978, 19, 400-428. In the MES test, maximal electroshock seizures are elicited with a 60- cycle alternating current of 50 mA intensity (5-7 times that necessary to elicit minimal electroshock seizures) delivered via corneal electrodes for 0.2 seconds. A drop of 0.9% saline is placed on the eye prior to application of the electrodes in order to […]. Abolition of the hind limb tonic extension component of the seizure is defined as protection and results are expressed as the number of animals protected/the number of animals tested.
In the sc MET test, eighty-five mg/kg of pentylenetetrazol, which induces seizures in more than 95% of mice, is administered as a 0.5% solution subcutaneously in the posterior midline. The animal is observed for 30 minutes. Failure to observe even a threshold seizure (a single episode of clonic spasms of at least 5 seconds duration) is defined as protection and the results are expressed as the number of animals protected/ the number of animals tested. […]

[2] = tested on: neurotoxicity (rotorod); experiment: rotorod test for neurological toxicity (Tox), Phase I, mice ip
Method: as §1
The rotorod test is used to evaluate neurotoxicity. The animal is placed on a 1 inch diameter knurled plastic rod rotating at 6 rpm. Normal mice can remain on a rod rotating at this speed indefinitely. […]

[3] = tested on: maximal electroshock seizures; experiment: maximal electroshock (MES) test, Phase I, mice ip; details: for responders at 10 mg/kg / responders at 30 mg/kg / responders at 100 mg/kg / responders at 300 mg/kg: Mus musculus
Method: as §1
In phase I, compounds are suspended in 0.5% aqueous methylcellulose and are administered intraperitoneally at three dosage levels (30, 100, and 300 mg/kg) with anticonvulsant activity and motor impairment noted 30 min and 4 h (and in some cases 2 h and 6 h) after administration.

[4] = 0.5 h, 30 min, read-out: scMet 30 min
[5] = 0.5 h, 30 min, read-out: scMet 30 min (converted)
[6] = 4 h, read-out: scMet 4 h (converted)
[7] = 100 mg/kg, 4 h, read-out: MES 4 h (converted)
[8] = 4 h, read-out: MES 4 h (converted)
[9] = 0.5 h, 30 min, read-out: MES 30 min (converted)
[10] = 0.5 h, 100 mg/kg, 30 min, read-out: MES 30 min (converted)

Compound | responders at 30 mg/kg [1, 4] [%] | responders at 100 mg/kg [1, 4] [%] | responders at 300 mg/kg [1, 5] [%] | responders at 30 mg/kg ([1]; 4 h, read-out: scMet 4 h) [%] | responders at 100 mg/kg ([1]; 4 h, read-out: scMet 4 h) [%] | responders at 300 mg/kg [1, 6] [%] | Tox 30 min ([2]; 30 mg/kg) | Tox 4 h ([2]; 30 mg/kg) | Tox 30 min ([2]; 100 mg/kg) | Tox 4 h ([2]; 100 mg/kg) | Tox 30 min ([2]; 300 mg/kg) | Tox 4 h ([2]; 300 mg/kg) | responders at 30 mg/kg ([3]; 4 h, read-out: MES 4 h) [%] | responders at 100 mg/kg [3, 7] [%] | responders at 300 mg/kg [3, 8] [%] | responders at 30 mg/kg [3, 9] [%] | responders at 100 mg/kg [3, 10] [%] | responders at 300 mg/kg [3, 9] [%] | other results
CCOC(=O)[C@@H]1C(=O)C2=C(C[C@H]1C)Nc1ccc(Br)cc1S2 (relative stereo) [Compound 4k, 7-Bromo-3-carbethoxy-2-methyl-2,3-dihydro-1H-phenothiazin-4[10H]-one] | 0 | 0 | 0 | 0 | 0 | 0 | 0/8 | 0/4 | 0/4 | 0/2 | 0/8 | 0/4 | 0 | 0 | 100 | 0 | 0 | 100 | responders at 10 mg/kg [1, 4]: 0%; responders at 10 mg/kg ([1]; 4 h, read-out: scMet 4 h): 0%; Tox 30 min ([2]; 10 mg/kg): 0/4; Tox 4 h ([2]; 10 mg/kg): 0/2; responders at 10 mg/kg ([3]; 4 h, read-out: MES 4 h): 0%; responders at 10 mg/kg ([3]; 0.5 h, 30 min, read-out: MES 30 min): 0%
COC(=O)[C@@H]1C(=O)C2=C(C[C@H]1C)Nc1ccc(C)cc1S2 (relative stereo) [Compound 4h] | 0 | 0 | 0 | 0 | 0 |  | 0/4 | 0/2 | 0/8 | 0/4 | 0/3 | 0/1 | 0 | 33.3 | 100 | 0 | 0 | 100 | MES animals protected at 0.25 h ([3]; 100 mg/kg, 0.25 h): 2/3
C[C@@H]1CC2=C(Sc3ccccc3N2)C(=O)[C@H]1C(=O)OC(C)(C)C (relative stereo) [Compound 4c, 3-Carbo-ter-butoxy-2-methyl-2,3-dihydro-1H-phenothiazin-4[10H]-one] | 0 | 0 | 0 | 0 | 0 | 0 | 0/4 | 0/2 | 0/8 | 0/4 | 0/4 | 0/2 | 0 | 33.3 | 100 | 0 | 0 | 0 | toxic at 2 h ([2]; 100 mg/kg, 2 h): 1/3; toxic at 6 h ([2]; 100 mg/kg, 6 h): 0/3; MES animals protected at 2 h ([3]; 100 mg/kg, 2 h): 1/3; MES animals protected at 6 h ([3]; 100 mg/kg, 6 h): 0/3
